Measurements published in patent US9120749B2, “Quinoline derivatives and MELK inhibitors containing the same” (ONCOTHERAPY SCIENCE, INC., priority 2010, dated 2015).
Where a name gives a salt, the structure may show the parent alone. Read-outs that look alike come from different tables or passages of the source.

Key:
MELK = MELK (Homo sapiens, UniProt Q14680); assay: Kinase assay: MELK activity, phosphorylation of FITC-labeled histone H3 peptide measured by IMAP fluorescence polarization; type: biochemical; conditions: 50 micro-M ATP, FITC-labeled histone H3 peptide substrate, IMAP fluorescence polarization, read-out: IC50 (μM) (kinase assay)
How it was run: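 Substrate is FITC-labeled histone H3 peptide. Compounds come from a 12.5 mM DMSO stock, diluted so assay DMSO is 1%. The stop step adds threefold-volume progressive binding solution, followed by 0.5 h at room temperature and an FP read.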

BT-549 cells = assay: Cell-based assay: anti-proliferative activity, Cell Counting Kit-8, 72 hours (BT-549); conditions: BT549 cells, MELK-expressing, Cell Counting Kit-8 at 72 hours
How it was run: (§1)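 IC50 values come from CCK-8 growth measurements taken 72 hours post-treatment of plated cells with test compounds. Expression of MELK across the panel was assessed through immunoblot of unfractionated lysates.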

T47D cells = assay: Cell-based assay: anti-proliferative activity, Cell Counting Kit-8, 72 hours (T47D); conditions: MELK-expressing, Cell Counting Kit-8 at 72 hours
How it was run: as §1

A549 cells = assay: Cell-based assay: anti-proliferative activity, Cell Counting Kit-8, 72 hours (A549); conditions: MELK-expressing, Cell Counting Kit-8 at 72 hours
How it was run: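 A549 cells were seeded in 96-well plates and exposed to candidate inhibitors for 72 hours. Cell growth was then measured with Cell Counting Kit-8, and IC50 values were calculated from the resulting growth data.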

HT-1197 cells = assay: Cell-based assay: anti-proliferative activity, Cell Counting Kit-8, 72 hours (HT-1197, negative control without MELK expression); conditions: HT1197 cells, no MELK expression (negative control), Cell Counting Kit-8 at 72 hours
How it was run: as §1

Sequence of MELK (Q14680 whole entry, looked up): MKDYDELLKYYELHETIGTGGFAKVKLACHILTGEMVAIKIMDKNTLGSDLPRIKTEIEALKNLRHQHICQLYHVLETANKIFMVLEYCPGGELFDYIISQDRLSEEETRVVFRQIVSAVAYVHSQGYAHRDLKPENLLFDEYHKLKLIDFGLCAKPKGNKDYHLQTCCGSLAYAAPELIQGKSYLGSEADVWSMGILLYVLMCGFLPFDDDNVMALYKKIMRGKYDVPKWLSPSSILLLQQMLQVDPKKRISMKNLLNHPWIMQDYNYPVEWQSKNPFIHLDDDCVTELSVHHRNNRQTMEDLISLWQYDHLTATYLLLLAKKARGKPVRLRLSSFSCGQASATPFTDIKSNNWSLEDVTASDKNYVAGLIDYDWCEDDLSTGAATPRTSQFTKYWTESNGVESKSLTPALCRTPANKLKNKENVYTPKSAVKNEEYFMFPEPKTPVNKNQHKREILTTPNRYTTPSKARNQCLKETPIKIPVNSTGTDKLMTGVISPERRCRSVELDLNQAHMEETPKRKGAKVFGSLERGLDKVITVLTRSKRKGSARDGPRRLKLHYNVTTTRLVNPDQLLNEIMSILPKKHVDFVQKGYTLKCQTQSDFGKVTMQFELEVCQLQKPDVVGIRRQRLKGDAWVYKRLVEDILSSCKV

| SMILES | IC50 (MELK) [µM] | IC50 (BT-549 cells; Homo sapiens, BT-549, 72 h) [µM] | IC50 (T47D cells; Homo sapiens, T47D, 72 h) [µM] | IC50 (A549 cells; Homo sapiens, A549, 72 h) [µM] | IC50 (HT-1197 cells; Homo sapiens, HT1197, 72 h) [µM] | IC50 (MELK; dihydrochloride) [µM] | IC50 (BT-549 cells; dihydrochloride) [µM] | IC50 (T47D cells; dihydrochloride) [µM] | IC50 (A549 cells; dihydrochloride) [µM] | IC50 (HT-1197 cells; dihydrochloride) [µM] |
| --- | --- | --- | --- | --- | --- | --- | --- | --- | --- | --- |
| CC(C1CCN(c2c(S(C)(=O)=O)cnc3ccc(-c4ccc(O)c(Cl)c4)cc23)CC1)N(C)C (centres unmarked) [Example 246, 2-Chloro-4-[4-{4-[1-(dimethylamino)ethyl]piperidin-1-yl}-3-(methylsulfonyl)quinolin-6-yl]phenol] | 0.01 | 0.72 | 0.18 | 0.35 | 1.2 | – | – | – | – | – |
| CC(C)C(=O)c1cnc2ccc(-c3cc(Cl)c(O)c(Cl)c3)cc2c1N[C@H]1CC[C@H](N)CC1 [Example 225(b), 1-{4-[trans-4-Aminocyclohexylamino]-6-(3,5-dichloro-4-hydroxyphenyl)quinolin-3-yl}-2-methylpropan-1-one dihydrochloride] | – | – | – | – | – | 0.0028 | 0.17 | 0.048 | 0.22 | 1.6 |
| COc1cc(-c2ccc3ncc(C(=O)C4CC4)c(N4CCC(C(C)N(C)C)CC4)c3c2)cc(Cl)c1O (centres unmarked) [Example 250, [6-(3-Chloro-4-hydroxy-5-methoxyphenyl)-4-{4-[1-(dimethylamino)ethyl]piperidin-1-yl}quinolin-3-yl](cyclopropyl)methanone] | 0.0013 | 0.61 | 0.16 | 0.11 | 1.7 | – | – | – | – | – |
| COc1cc(-c2ccc3ncc(C(=O)C4CC4)c(-c4ccc(CN(C)C)cc4)c3c2)cc(Cl)c1O [Example 356] | 0.0042 | 0.87 | 0.46 | 0.45 | 3.5 | – | – | – | – | – |
| O=C(c1cnc2ccc(-c3ccc(O)c(Cl)c3)cc2c1N[C@H]1CC[C@H](N2CCCC2)CC1)C1CC1 [Example 342, {6-(3-Chloro-4-hydroxyphenyl)-4-[trans-4-(pyrrolidin-1-yl)cyclohexylamino]quinolin-3-yl}(cyclopropyl)methanone] | 0.0046 | 0.68 | 0.25 | 0.27 | 1.8 | – | – | – | – | – |
| COc1cc(-c2ccc3ncc(C(C)=O)c(N4CCC(CN(C)C)CC4)c3c2)cc(Cl)c1O [Example 305, 1-[6-(3-chloro-4-hydroxy-5-methoxyphenyl)-4-{4-[(dimethylamino)methyl]piperidin-1-yl}quinolin-3-yl]ethanone] | 0.0022 | 0.33 | 0.21 | 0.14 | 3.6 | – | – | – | – | – |
| CC(C)C(=O)c1cnc2ccc(-c3cc(F)c(O)c(Cl)c3)cc2c1N[C@H]1CC[C@H](N)CC1 [Example 205, 1-{4-[trans-4-Aminocyclohexylamino]-6-(3-chloro-5-fluoro-4-hydroxyphenyl)quinolin-3-yl}-2-methylpropan-1-one] | 0.01 | 0.15 | 0.066 | 0.6 | 2.4 | – | – | – | – | – |
| CCN(CC)C1CCC(Nc2c(C(=O)C3CC3)cnc3ccc(-c4ccc(O)c(OC)c4)cc23)CC1 (centres unmarked) [Example 193, Cyclopropyl{4-[4-(diethylamino)cyclohexylamino]-6-(4-hydroxy-3-methoxyphenyl)quinolin-3-yl}methanone] | 0.007 | 2 | 0.52 | 0.59 | 4.2 | – | – | – | – | – |
| O=C(c1cnc2ccc(-c3ccc(O)c(OC(F)(F)F)c3)cc2c1N1CCC(CN2CCCC2)CC1)C1CC1 [Example 313, Cyclopropyl{6-[4-hydroxy-3-(trifluoromethoxy)phenyl]-4-[4-(pyrrolidin-1-ylmethyl]piperidin-1-yl}quinolin-3-yl)methanone] | 0.012 | 1.3 | 0.67 | 0.8 | 3.2 | – | – | – | – | – |
| CC(=O)c1cnc2ccc(-c3cc(Cl)c(O)c(Cl)c3)cc2c1N[C@H]1CC[C@H](N)CC1 [Example 256, 1-{4-[trans-4-Aminocyclohexylamino]-6-(3,5-dichloro-4-hydroxyphenyl)quinolin-3-yl}ethanone] | 0.0041 | 0.31 | 0.064 | 0.44 | 100 | – | – | – | – | – |
| COc1cc(-c2ccc3ncc(C(=O)C4CC4)c(N4CCC(CN5CCCC5)CC4)c3c2)cc(F)c1O [Example 307, Cyclopropyl{6-(3-fluoro-4-hydroxy-5-methoxyphenyl)-4-[4-(pyrrolidin-1-ylmethyl)piperidin-1-yl]quinolin-3-yl}methanone] | 0.0041 | 1.2 | 0.79 | 0.53 | 3 | – | – | – | – | – |
| CC(C)C(=O)c1cnc2ccc(-c3cc(Cl)c(O)c(Cl)c3)cc2c1N[C@H]1CC[C@H](N)CC1 [Example 225(a), 1-{4-[trans-4-Aminocyclohexylamino]-6-(3,5-dichloro-4-hydroxyphenyl)quinolin-3-yl}-2-methylpropan-1-one] | 0.0025 | 0.18 | 0.073 | 0.43 | 2 | – | – | – | – | – |
| COc1cc(-c2ccc3ncc(C(=O)CC(C)C)c(N[C@H]4CC[C@H](N)CC4)c3c2)cc(Cl)c1O [Example 262, dihydrochloride] | 0.005 | 0.91 | 0.13 | 0.36 | 2.2 | – | – | – | – | – |
| CC(C)C(=O)c1cnc2ccc(-c3ccc(O)c(Cl)c3)cc2c1N1CCC(CN2CCCC2)CC1 [Example 318, 1-{6-(3-Chloro-4-hydroxyphenyl)-4-[4-(pyrrolidin-1-ylmethyl)piperidin-1-yl]quinolin-3-yl}-2-methylpropan-1-one] | 0.02 | 1.8 | 0.92 | 0.87 | 1.4 | – | – | – | – | – |
| CN(C)[C@H]1CC[C@H](CNc2c(C(=O)C3CC3)cnc3ccc(-c4cc(Cl)c(O)c(Cl)c4)cc23)CC1 [Example 325, Cyclopropyl[6-(3,5-dichloro-4-hydroxyphenyl)-4-{[trans-4-(dimethylamino)cyclohexyl]methylamino}quinolin-3-yl]methanone] | 0.011 | 1.9 | 0.78 | 0.62 | 10 | – | – | – | – | – |
| CC(=O)c1cnc2ccc(-c3cc(F)c(O)c(F)c3)cc2c1N[C@H]1CC[C@H](N)CC1 [Example 258, 1-{4-[trans-4-Aminocyclohexylamino]-6-(3,5-difluoro-4-hydroxyphenyl)quinolin-3-yl}ethanone] | 0.04 | 0.16 | 0.071 | 0.85 | 100 | – | – | – | – | – |
| N[C@H]1CC[C@H](Nc2c(C(=O)C3CC3)cnc3ccc(-c4cc(Cl)c(O)cc4Cl)cc23)CC1 [Example 160, {4-[trans-4-Aminocyclohexylamino]-6-(2,5-dichloro-4-hydroxyphenyl)quinolin-3-yl}(cyclopropyl)methanone] | 0.072 | 0.39 | 0.28 | 0.68 | 1.2 | – | – | – | – | – |
| CN(C)[C@H]1CC[C@H](Nc2c(C(=O)C3CC3)cnc3cc(F)c(-c4cc(F)c(O)c(F)c4)cc23)CC1 [Example 294, Cyclopropyl{6-(3,5-difluoro-4-hydroxyphenyl)-4-[trans-4-(dimethylamino)cyclohexylamino]-7-fluoroquinolin-3-yl}methanone] | 0.042 | 0.55 | 0.68 | 0.43 | 1.5 | – | – | – | – | – |
| COc1cc(-c2ccc3ncc(C(C)=O)c(N[C@H]4CC[C@H](N)CC4)c3c2)cc(Cl)c1O [Example 259, 1-{4-[trans-4-Aminocyclohexylamino]-6-(3-chloro-4-hydroxy-5-methoxyphenyl)quinolin-3-yl}ethanone] | 0.0024 | 0.43 | 0.057 | 0.099 | 2.5 | – | – | – | – | – |
